The values that follow come from article PMC6736568, “Discovery of Novel Anti-cryptosporidial Activities From Natural Products by in vitro High-Throughput Phenotypic Screening” (Frontiers in Microbiology, 2019).

The subject of data set [1] is HCT-8 host cells (Hs18S).
A short description of data set [2]: in vitro. The settings on record: for cytotoxicity at 41 h, 10 µM: human.
Data set [3] relates to Cryptosporidium parvum. Put plainly: qRT-PCR assay of the growth of C. parvum in vitro in HCT-8 host cells (primary and secondary screening, EC50). The class given is cell-based. The settings on record: Cryptosporidium parvum, HCT-8; for inhibition at 10 µM: primary screening at 10 uM, read-out: Inhibition (%); for inhibition at 3.3 µM: secondary screening at 3.3 uM, read-out: % Inhibition (3.3 uM).

Where [4] appears, read: primary screening at 10 uM, treated vs control.

Where a name gives a salt, the structure may show the parent alone. Read-outs that look alike come from different tables or passages of the source.

Turning to `O=c1c(O)c(-c2ccc(O)c(O)c2)oc2c(O)c(O)cc(O)c12` [GOSSYPETIN], in data set [1] (setting [4]), the “Hs18S ΔCT” value is recorded as -0.04. In data set [2], the cytotoxicity at 10 µM was -2.6%. Moreover, in data set [3], the inhibition at 10 µM is -17.5%.

For the compound `Cc1cc2c(C(C)C)c(O)c(O)c(C=O)c2c(O)c1-c1c(C)cc2c(C(C)C)c(O)c(O)c(C=O)c2c1O` [GOSSYPOL], in data set [1] (setting [4]), the “Hs18S ΔCT” value amounted to 0.45. Further, the cytotoxicity at 41 h, 10 µM in data set [2] came to 26.6%. Further, the inhibition at 10 µM in data set [3] stood at 21.4%.

In the case of `CN(C)Cc1c[nH]c2ccccc12` [GRAMINE], the “Hs18S ΔCT” value in data set [1] (setting [4]) is on record as -0.42. In addition, the cytotoxicity at 41 h, 10 µM in data set [2] is -33.5%. The inhibition at 10 µM in data set [3] is -43.9%.

For `COC1=CC(=O)C[C@@H](C)[C@]12Oc1c(Cl)c(OC)cc(OC)c1C2=O` [GRISEOFULVIN], the “Hs18S ΔCT” value in data set [1] (human, 41 h, 10 μM) worked out at 0.30. Moreover, the cytotoxicity at 41 h, 10 µM in data set [2] is 18.7%. In data set [3], the inhibition at 10 µM turned out to be 66% and the inhibition at 3.3 µM came to 9%.

For the compound `CC(=O)O[C@@H]1[C@H]2CC[C@H]3[C@@](C)(O)[C@@H]4C[C@H](O)C(C)(C)[C@@]4(O)[C@H](O)C[C@@]13C[C@@]2(C)O` [GR[…]], the “Hs18S ΔCT” value in data set [1] (setting [4]) is -0.03. For the same compound, the cytotoxicity at 10 µM in data set [2] is -2.4%. Besides, the inhibition at 10 µM in data set [3] was 3.95%.

As for `COc1ccccc1O` [GUAIACOL], in data set [1] (human, 41 h, 10 μM), the “Hs18S ΔCT” value was determined as 0.02. In data set [2], the cytotoxicity at 41 h, 10 µM was determined as 1.6%. In addition, the inhibition at 10 µM in data set [3] is -32.9%.

Consider `Cc1ccc(C(C)C)cc2c(C)ccc1-2` [GUAIAZULENE], for which the “Hs18S ΔCT” value in data set [1] (human, 41 h, 10 μM) was -0.34. Also, the cytotoxicity at 41 h, 10 µM in data set [2] is -27%. Also, in data set [3], the inhibition at 10 µM is -38.2%.

For the compound `CC1=C(CCC(=O)O)c2cc3[nH]c(cc4nc(cc5[nH]c(cc1n2)c(C)c5C(C)O)C(C)=C4C(C)O)c(C)c3CCC(=O)O` (stereo not drawn) [HAEMATOPORPHYRIN], the “Hs18S ΔCT” value in data set [1] (human, 41 h, 10 μM) is on record as 1.45. Moreover, the cytotoxicity at 41 h, 10 µM in data set [2] is 63.3%. In data set [3], the inhibition at 10 µM was 93.1% and the inhibition at 3.3 µM is 33%.

Consider `Oc1cc2c(cc1O)C1c3ccc(O)c(O)c3OCC1(O)C2` (stereo not drawn) [HAEMATOXYLIN], for which the “Hs18S ΔCT” value in data set [1] (human, 41 h, 10 μM) is listed as 0.00. In addition, the cytotoxicity at 41 h, 10 µM in data set [2] worked out at 0.1%. In data set [3], the inhibition at 10 µM was -27.2%.

Regarding `COc1ccc2c3c([nH]c2c1)C(C)=NCC3` [HARMALINE], in data set [1] (setting [4]), the “Hs18S ΔCT” value is 0.01. Besides, the cytotoxicity at 10 µM in data set [2] is 0.9%. The inhibition at 10 µM in data set [3] was -31.9%.

On to `Cc1nccc2c1[nH]c1ccccc12` [HARMANE], for which, in data set [1] (setting [4]), the “Hs18S ΔCT” value was found to be 0.07. In addition, the cytotoxicity at 10 µM in data set [2] was determined as 4.5%. The inhibition at 10 µM in data set [3] was -23.2%.

Turning to `COc1ccc2c(c1)[nH]c1c(C)nccc12` [HARMINE], the “Hs18S ΔCT” value in data set [1] (setting [4]) came out at 0.49. Further, the cytotoxicity at 10 µM in data set [2] came to 28.6%. For the same compound, in data set [3], the inhibition at 10 µM is 82.2% and the inhibition at 3.3 µM was -62%.

Regarding `Cc1nccc2c1[nH]c1cc(O)ccc12` [HARMOL HYDROCHLORIDE], the “Hs18S ΔCT” value in data set [1] (setting [4]) is given as -0.14. In addition, in data set [2], the cytotoxicity at 10 µM is -10.1%. The inhibition at 10 µM in data set [3] was -55.1%.

In the case of `C[C@]1(OC(=O)/C=C/c2ccccc2)C[C@@H](O)[C@]2(O)C=CO[C@@H](O[C@@H]3O[C@H](CO)[C@@H](O)[C@H](O)[C@H]3O)[C@@H]21` [HARPAGOSIDE], the “Hs18S ΔCT” value in data set [1] (human, 41 h, 10 μM) stood at 0.36. The cytotoxicity at 41 h, 10 µM in data set [2] stood at 21.8%. The inhibition at 10 µM in data set [3] is -42.1%.

As for `CC(=O)O[C@H]1CC[C@@]2(C)[C@@H](CC[C@@H]3[C@@H]2CC(=O)[C@]2(C)[C@@H]4[C@H](C[C@@H]32)O[C@]2(CC[C@@H](C)CO2)[C@H]4C)C1` [HECOGENIN ACETATE], the “Hs18S ΔCT” value in data set [1] (human, 41 h, 10 μM) is given as -0.05. The cytotoxicity at 41 h, 10 µM in data set [2] is -3.7%. Moreover, the inhibition at 10 µM in data set [3] was 6.66%.

Take `CC1(C)CC[C@]2(C(=O)O)CC[C@]3(C)C(=CC[C@@H]4[C@@]5(C)CC[C@H](O)[C@@](C)(CO)[C@@H]5CC[C@]43C)[C@@H]2C1` [HEDERAGENIN]: the “Hs18S ΔCT” value in data set [1] (setting [4]) is given as -0.11. Also, the cytotoxicity at 10 µM in data set [2] was -7.7%. In addition, the inhibition at 10 µM in data set [3] stood at 53.4%.

For the compound `C=C1C(=O)O[C@@H]2C[C@@]3(C)CCC[C@H](C)C3=C[C@H]12` [HELENINE], the “Hs18S ΔCT” value in data set [1] (human, 41 h, 10 μM) amounted to 0.10. The cytotoxicity at 41 h, 10 µM in data set [2] turned out to be 6.4%. Also, in data set [3], the inhibition at 10 µM was -20%.

As for `O=Cc1ccccc1O[C@@H]1O[C@H](CO)[C@@H](O)[C@H](O)[C@H]1O` [HELICIN], the “Hs18S ΔCT” value in data set [1] (human, 41 h, 10 μM) is on record as 0.07. Besides, in data set [2], the cytotoxicity at 10 µM was determined as 4.7%. Also, in data set [3], the inhibition at 10 µM stood at 18.6%.

For the compound `O=C1C=C2CC3(O)COc4c(ccc(O)c4O)C3=C2C=C1O` (stereo not drawn) [HEMATEIN], the “Hs18S ΔCT” value in data set [1] (human, 41 h, 10 μM) amounted to 0.13. The cytotoxicity at 41 h, 10 µM in data set [2] came out at 8.6%. Further, the inhibition at 10 µM in data set [3] amounted to 10.1%.

For the compound `COc1ccc([C@@H]2CC(=O)c3c(O)cc(O)cc3O2)cc1O` [HESPERETIN], the “Hs18S ΔCT” value in data set [1] (human, 41 h, 10 μM) was -0.02. Besides, in data set [2], the cytotoxicity at 41 h, 10 µM was -1.2%. Further, the inhibition at 10 µM in data set [3] worked out at 17.6%.

For the compound `COc1cc(O)c2c(=O)cc(C)oc2c1CC=C(C)C` [HETEROPEUCENIN, METHYL ETHER], the “Hs18S ΔCT” value in data set [1] (human, 41 h, 10 μM) is -0.10. Further, the cytotoxicity at 41 h, 10 µM in data set [2] was -7.2%. Moreover, in data set [3], the inhibition at 10 µM is -96.3%.
